Data published in ChEMBL document CHEMBL1126338, “The synthesis of a conformationally rigid calcium channel blocker” (Bioorg Med Chem Lett, 1992).

Legend:
Oryctolagus cuniculus = species: Oryctolagus cuniculus; test: Inhibition of K+ induced contraction of rabbit aorta; format: functional; conditions: read-out: I50
[1] = Inhibition of [3H]D-cis-diltiazem binding to calcium channel of isolated guinea pig skeletal muscle microsomal preparation; format: microsomes, Cavia porcellus, Muscle tissue

IC50 (Oryctolagus cuniculus) | SMILES | Kd [1]
950 nM | COc1ccc([C@@H]2CC3c4ccccc4C2C[C@@]32CCNC2)cc1 (stereo partly specified) | 330 nM
2000 nM | COc1ccc([C@@H]2CC3c4ccccc4C2C[C@]32CCNC2)cc1 (stereo partly specified) | 1260 nM
1800 nM | COc1ccc([C@@H]2Sc3ccccc3N(CCN(C)C)C(=O)[C@@H]2OC(C)=O)cc1 [DILTIAZEM] | 380 nM
